{"source": "patent US20050038102A1", "about": "“Upregulation of type III endothelial cell Nitric Oxide Synthase by HMG-CoA reductase inhibitors” (BRIGHAM AND WOMENS HOSPITAL, priority 1997, published 2005)", "key": {"[1]": {"system": "wildtype SV-129 mice", "assay": "Murine model of cerebral vascular ischemia (MCA occlusion), wild-type", "format": "in vivo", "settings": "lovastatin treatment", "text": "The neurological motor deficit score improved in simvastatin-treated mice (n-18) by almost 2-fold compared to that of controls (n=12) (0.8±0.2 vs. 1.7±0.2, p<0.01)."}, "[2]": {"system": "ecNOS protein", "assay": "Western blotting of ecNOS protein levels in endothelial cells", "format": "cell-based, human", "settings": "for increase in ecNOS protein levels / ecNOS expression / increase in ecNOS protein levels: 0.1 mmol/L alone", "protocol": "Human endothelial cells were harvested from saphenous veins and cultured as described (15). For transfection studies, bovine aortic endothelial cells of less than 3 passages were cultured in a growth medium containing DMEM (Dulbecco's Modified Eagle's Medium), 5 mmol/L L-glutamine (Gibco), and 10% fetal calf serum (Hyclone Lot# 114577). For all experiments, the endothelial cells were placed in 10% lipoprotein-deficient serum (Sigma, Lot#26H9403 1) for 48 h prior to treatment conditions. […] Cellular viability as determined by cell count, morphology, and Trypan blue exclusion was maintained for all treatment conditions.\nCellular proteins were prepared and separated on SDS/PAGE as described (Liao, J K et al., J Biol Chem, 1995, 270:319-324.). Immunoblotting was performed using a murine monoclonal antibody to human ecNOS (1:400 dilution, Transduction Laboratories, Lexington, Ky.). Immunodetection was accomplished using a sheep anti-mouse secondary antibody (1:4000 dilution) and the enhanced chemiluminescence (ECL) kit (Amersham Corp., Arlington Heights, Ill.). Autoradiography was performed at 23° C. and the appropriate exposures were quantitated by densitometry.\nHuman endothelial cells were harvested from saphenous veins using Type II collagenase (Worthington Biochemical Corp., Freehold, N.J.) as previously described. Cells of less than three passages were grown to confluence in a culture medium containing Medium 199, 20 mM HEPES, 50 mg/ml ECGS (Collaborative Research Inc., Bedford, Mass.), […] heparin sulfate, 5 mM L-glutamine (Gibco), 5% fetal calf serum (Hyclone, Logan, Utah), and antibiotic mixture of penicillin (100 U/ml)/ streptomycin ([…])/Fungizone (1.25 mg/ml). For all experiments, the endothelial cells were grown to confluence before any treatment conditions. In some experiments, cells were pretreated with actinomycin D (5 mg/ml) for 1 h prior to treatment with HMG-CoA reductase inhibitors. […]"}, "[3]": {"system": "ecNOS", "assay": "Assay for ecNOS activity (LNMA-inhibitable nitrite production)", "format": "cell-based, human", "settings": "higher concentration"}, "[4]": {"system": "wild type mice", "assay": "Regional cerebral blood flow by laser-Doppler flowimetry, wild type and simvastatin-treated mice", "format": "in vivo", "protocol": "Regional cerebral blood flow (rCBF) was monitored by laser-Doppler flowimetry in groups of urethane-anesthetized, ventilated mice. Additional physiological variables were also monitored in the mice, including mean arterial blood pressure (MABP), heart rate, blood pH, PaO2, and PaCO2.\n(§1) FIG. 5 is a bar graph showing regional CBF changes in wild type and eNOS null mice for 40 min after L-arginine (450 mg/kg) or saline infusion at a constant rate of 100 microliter/kg/min over 15 min. The number of mice in each group is indicated in parenthesis. Error bars denote standard error of the mean (SEM), and an asterisk (*) denotes statistically significant difference (P<0.05) compared with baseline control by one-way ANOVA followed by Fisher's protected least-squares difference test.\nError bars denote SEM and an asterisk (*) denotes statistically significant difference (P<0.05) compared with baseline control by one-way ANOVA followed by Fisher's protected least-squares difference test."}, "[5]": {"system": "ecNOS mRNA", "assay": "ecNOS mRNA half-life in the presence of actinomycin D", "format": "cell-based, human"}, "[6]": {"system": "ecNOS mRNA", "assay": "Quantitative RT-PCR of ecNOS mRNA in mouse aortae and brains", "format": "in vivo, mice"}, "[7]": {"system": "eNOS null mice", "assay": "Regional cerebral blood flow by laser-Doppler flowimetry, eNOS null mice", "format": "in vivo", "settings": "L-arginine 450 mg/kg, i.v., 40 minute recording period", "protocol": "L-arginine infusion at 300 mg/kg, i.v., caused modest (10%) and variable elevations in regional cerebral blood flow (rCBF) after infusion in several preliminary experiments (n=4, data not shown). […] Regional cerebral blood flow (rCBF) was monitored by laser-Doppler flowimetry in groups of urethane-anesthetized, ventilated mice. Additional physiological variables were also monitored in the mice, including mean arterial blood pressure (MABP), heart rate, blood pH, PaO2, and PaCO2.\nas §1"}, "[8]": {"system": "human endothelial cell"}, "[9]": {"settings": "1 mmol/L alone (concentration series), 48 h"}, "[10]": {"settings": "10 mmol/L alone (concentration series), 48 h"}}, "data": [{"molecule": "CC[C@H](C)C(=O)O[C@H]1C[C@@H](C)C=C2C=C[C@H](C)[C@H](CC[C@@H]3C[C@@H](O)CC(=O)O3)[C@H]21", "note": "[lovastatin]", "values": [{"measurement": "reduction of cerebral infarct size", "setting": "[1]", "result": "also occurred with lovastatin treatment, albeit at higher relative concentrations"}, {"measurement": "increase in ecNOS protein levels / ecNOS expression", "setting": "[2]; 48 h", "result": 10, "unit": "%"}, {"measurement": "increase in ecNOS expression", "setting": "[2]; [9]", "result": 105, "unit": "%"}, {"measurement": "increase in ecNOS expression", "setting": "[2]; [10]", "result": 180, "unit": "%"}, {"measurement": "potency in upregulating ecNOS protein levels, less potent than simvastatin", "setting": "[2]; equimolar concentrations", "result": 10, "unit": "fold"}, {"measurement": "effect on ecNOS expression", "setting": "[2]; not chemically-activated", "result": "had no effect on ecNOS expression"}, {"measurement": "concentration needed for similar findings, compared to that of simvastatin", "setting": "[3]", "result": 10, "unit": "fold"}]}, {"molecule": "CCC(C)(C)C(=O)O[C@H]1C[C@@H](C)C=C2C=C[C@H](C)[C@H](CC[C@@H]3C[C@@H](O)CC(=O)O3)[C@H]21", "note": "[simvastatin]", "values": [{"measurement": "increase in baseline rCBF", "setting": "[4]; chronic daily administration of simvastatin alone", "result": 25, "unit": "%"}, {"measurement": "increase in ecNOS expression", "setting": "[2]; 0.01 mmol/L alone (series 0.01 to 10 mmol/L), 48 h", "result": 1, "unit": "%"}, {"measurement": "increase in ecNOS protein levels", "setting": "[2]; 12 h", "result": 4, "unit": "%"}, {"measurement": "increase in ecNOS protein levels", "setting": "[2]; 24 h", "result": 21, "unit": "%"}, {"measurement": "increase in ecNOS protein levels / ecNOS expression", "setting": "[2]; 48 h", "result": 80, "unit": "%"}, {"measurement": "increase in ecNOS protein levels", "setting": "[2]; 72 h", "result": 90, "unit": "%"}, {"measurement": "increase in ecNOS protein levels", "setting": "[2]; 84 h", "result": 95, "unit": "%"}, {"measurement": "increase in ecNOS expression", "setting": "[2]; [9]", "result": 190, "unit": "%"}, {"measurement": "increase in ecNOS expression", "setting": "[2]; [10]", "result": 310, "unit": "%"}, {"measurement": "decrease in ecNOS protein level", "setting": "[2]; simvastatin 0.1 mmol/L + ox-LDL 50 mg/ml, 24 h", "result": 15, "unit": "%"}, {"measurement": "ecNOS protein levels increased above basal expression", "setting": "[2]; simvastatin 0.1 mmol/L + ox-LDL 50 mg/ml, 72 h", "result": 110, "unit": "%"}, {"measurement": "ecNOS protein levels increased above basal expression", "setting": "[2]; simvastatin 0.1 mmol/L + ox-LDL 50 mg/ml, 96 h", "result": 124, "unit": "%"}, {"measurement": "ecNOS expression above basal expression", "setting": "[2]; simvastatin 1 mmol/L + ox-LDL 50 mg/ml (TBARS 15.1 nmol/mg), 48 h", "result": 150, "unit": "%"}, {"measurement": "ecNOS protein levels above baseline", "setting": "[2]; simvastatin 10 mmol/L + ox-LDL 50 mg/ml, 48 h", "result": "210%±12%"}, {"measurement": "half-life of ecNOS mRNA (t½)", "setting": "[5]; simvastatin 0.1 mmol/L + ox-LDL", "result": "22 ± 3", "unit": "h"}, {"measurement": "half-life of ecNOS mRNA (t½)", "setting": "[5]; simvastatin alone", "result": "43 ± 4", "unit": "h"}, {"measurement": "increase in ecNOS expression in infarcted, ipsilateral hemisphere compared to contralateral side", "setting": "[6]; simvastatin 2 mg/kg, 14 days, brain, with respect to GAPDH mRNA", "result": "1.5-to 2 fold"}, {"measurement": "increase of ecNOS message compared to that of GAPDH, aortae", "setting": "[6]; simvastatin-treated mice, dose-dependent", "result": 3, "unit": "fold"}]}, {"molecule": "N=C(N)NCCC[C@H](N)C(=O)O", "note": "[L-arginine]", "values": [{"measurement": "rCBF change", "setting": "[7]", "result": "−4 to +5%"}, {"measurement": "elevation in regional cerebral blood flow (rCBF)", "setting": "[4]; L-arginine 300 mg/kg, i.v., preliminary experiments", "result": 10, "unit": "%"}, {"measurement": "time at which increase in rCBF began", "setting": "[4]; L-arginine 450 mg/kg, i.v., wild type mice", "result": "5 to 10", "unit": "min"}, {"measurement": "maximum increase in rCBF above baseline", "setting": "[4]; L-arginine 450 mg/kg, i.v., wild type mice, at 20-25 min", "result": 26, "unit": "%"}, {"measurement": "additional time for which rCBF increases were sustained", "setting": "[4]; L-arginine infusion in simvastatin-treated mice", "result": 20, "unit": "min"}, {"measurement": "maximum increase in rCBF over simvastatin baseline", "setting": "[4]; L-arginine infusion in simvastatin-treated mice, at 15-20 min", "result": "29-31%"}]}, {"molecule": "L-mevalonate", "values": [{"measurement": "reduction of ecNOS protein compared to cells treated with ox-LDL and simvastatin", "setting": "[2]; addition of L-mevalonate 100 mmol/L to ox-LDL + simvastatin 1 mmol/L", "result": "50%±5%"}, {"measurement": "observable adverse effects on cellular morphology", "setting": "[8]", "result": "no observable adverse effects"}]}]}
